Reference: PubChem BioAssay (NCI)
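In this assay, cells in 96-well plates receive the compound at five concentrations for 48 hours. Endpoints are linearly interpolated between the surrounding concentrations. GI50 marks 50% less growth. Definition used: TGI = concentration required for complete inhibition of growth.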

Assays:
Assay in all cases: growth of human tumour cells (NCI), 48 h
UACC-257 melanoma = test system: UACC-257 melanoma
SN12C renal = test system: SN12C renal
MALME-3M melanoma = test system: MALME-3M melanoma
SF-268 CNS = test system: SF-268 CNS
MDA-MB-231 breast = test system: MDA-MB-231 breast
HCC-2998 colon = test system: HCC-2998 colon
OVCAR-4 ovarian = test system: OVCAR-4 ovarian
IGROV1 ovarian = test system: IGROV1 ovarian
UO-31 renal = test system: UO-31 renal
PC-3 prostate = test system: PC-3 prostate
HCT-116 colon = test system: HCT-116 colon
T-47D breast = test system: T-47D breast
MCF7 breast = test system: MCF7 breast
EKVX NSCLC = test system: EKVX NSCLC
BT-549 breast = test system: BT-549 breast
TK-10 renal = test system: TK-10 renal
M14 melanoma = test system: M14 melanoma
RXF 393 renal = test system: RXF 393 renal
LOX IMVI melanoma = test system: LOX IMVI melanoma
SK-MEL-2 melanoma = test system: SK-MEL-2 melanoma
HOP-62 NSCLC = test system: HOP-62 NSCLC
SK-OV-3 ovarian = test system: SK-OV-3 ovarian
CAKI-1 renal = test system: CAKI-1 renal
SNB-19 CNS = test system: SNB-19 CNS
NCI-H23 lung = test system: NCI-H23 lung
HCT-15 colon = test system: HCT-15 colon
MDA-MB-468 breast = test system: MDA-MB-468 breast
786-0 renal = test system: 786-0 renal
SF-295 CNS = test system: SF-295 CNS
SF-539 CNS = test system: SF-539 CNS
SK-MEL-5 melanoma = test system: SK-MEL-5 melanoma
ACHN renal = test system: ACHN renal
NCI-H226 lung = test system: NCI-H226 lung
NCI-H522 lung = test system: NCI-H522 lung
OVCAR-5 ovarian = test system: OVCAR-5 ovarian
NCI/ADR-RES ovarian = test system: NCI/ADR-RES ovarian
RPMI-8226 leukemia = test system: RPMI-8226 leukemia
HS 578T breast = test system: HS 578T breast
SK-MEL-28 melanoma = test system: SK-MEL-28 melanoma
K-562 leukemia = test system: K-562 leukemia
A549 NSCLC = test system: A549 NSCLC
HL-60(TB) leukemia = test system: HL-60(TB) leukemia
UACC-62 melanoma = test system: UACC-62 melanoma
COLO 205 colon = test system: COLO 205 colon
DU-145 prostate = test system: DU-145 prostate
SNB-75 CNS = test system: SNB-75 CNS
A498 renal = test system: A498 renal
HOP-92 NSCLC = test system: HOP-92 NSCLC

COc1ccc2c(c1)c(-c1cc3nc(-c4cn(C)c5ncc(Br)cc45)cc(N)n3n1)cn2C
GI50 (UACC-257 melanoma): 1.79 µM
TGI (UACC-257 melanoma): 3.72 µM
GI50 (SN12C renal): 2.11 µM
TGI (SN12C renal): 6.03 µM
GI50 (MALME-3M melanoma): 1.92 µM
TGI (MALME-3M melanoma): 3.47 µM
GI50 (SF-268 CNS): 2.3 µM
TGI (SF-268 CNS): 6.14 µM
GI50 (MDA-MB-231 breast): 1.62 µM
TGI (MDA-MB-231 breast): 3.28 µM
GI50 (HCC-2998 colon): 1.66 µM
TGI (HCC-2998 colon): 3.16 µM
GI50 (OVCAR-4 ovarian): 2.13 µM
TGI (OVCAR-4 ovarian): 5.17 µM
GI50 (IGROV1 ovarian): 2.04 µM
TGI (IGROV1 ovarian): 4.54 µM
GI50 (UO-31 renal): 1.78 µM
TGI (UO-31 renal): 4.41 µM
GI50 (PC-3 prostate): 2.45 µM
TGI (PC-3 prostate): > 100 µM
GI50 (HCT-116 colon): 1.66 µM
TGI (HCT-116 colon): 3.04 µM
GI50 (T-47D breast): 1.66 µM
TGI (T-47D breast): 3.68 µM
GI50 (MCF7 breast): 1.77 µM
TGI (MCF7 breast): 3.72 µM
GI50 (EKVX NSCLC): 1.48 µM
TGI (EKVX NSCLC): 3.39 µM
GI50 (BT-549 breast): 2.12 µM
TGI (BT-549 breast): 4.49 µM
GI50 (TK-10 renal): 2.36 µM
TGI (TK-10 renal): 6.69 µM
GI50 (M14 melanoma): 1.66 µM
TGI (M14 melanoma): 3.23 µM
GI50 (RXF 393 renal): 1.96 µM
TGI (RXF 393 renal): 3.57 µM
GI50 (LOX IMVI melanoma): 1.53 µM
TGI (LOX IMVI melanoma): 2.89 µM
GI50 (SK-MEL-2 melanoma): 2.07 µM
TGI (SK-MEL-2 melanoma): 4.84 µM
GI50 (HOP-62 NSCLC): 2.09 µM
TGI (HOP-62 NSCLC): 5.98 µM
GI50 (SK-OV-3 ovarian): 2.41 µM
TGI (SK-OV-3 ovarian): 6.25 µM
GI50 (CAKI-1 renal): 1.48 µM
TGI (CAKI-1 renal): 3.3 µM
GI50 (SNB-19 CNS): 2.25 µM
TGI (SNB-19 CNS): 5.58 µM
GI50 (NCI-H23 lung): 2.25 µM
TGI (NCI-H23 lung): 6.77 µM
GI50 (HCT-15 colon): 1.48 µM
TGI (HCT-15 colon): 3.54 µM
GI50 (MDA-MB-468 breast): 1.32 µM
TGI (MDA-MB-468 breast): 2.82 µM
GI50 (786-0 renal): 1.73 µM
TGI (786-0 renal): 3.16 µM
GI50 (SF-295 CNS): 1.77 µM
TGI (SF-295 CNS): 3.65 µM
GI50 (SF-539 CNS): 1.67 µM
TGI (SF-539 CNS): 3.13 µM
GI50 (SK-MEL-5 melanoma): 3.27 µM
TGI (SK-MEL-5 melanoma): 12.1 µM
GI50 (ACHN renal): 1.5 µM
TGI (ACHN renal): 3.15 µM
GI50 (NCI-H226 lung): 4.19 µM
TGI (NCI-H226 lung): 20.1 µM
GI50 (NCI-H522 lung): 1.87 µM
TGI (NCI-H522 lung): 3.9 µM
GI50 (OVCAR-5 ovarian): 1.63 µM
TGI (OVCAR-5 ovarian): 3.96 µM
GI50 (NCI/ADR-RES ovarian): 2.28 µM
TGI (NCI/ADR-RES ovarian): 5.62 µM
GI50 (RPMI-8226 leukemia): 3.32 µM
TGI (RPMI-8226 leukemia): > 100 µM
GI50 (HS 578T breast): 2.29 µM
TGI (HS 578T breast): 6.47 µM
GI50 (SK-MEL-28 melanoma): 1.61 µM
TGI (SK-MEL-28 melanoma): 3.02 µM
GI50 (K-562 leukemia): 3.17 µM
TGI (K-562 leukemia): > 100 µM
GI50 (A549 NSCLC): 2.31 µM
TGI (A549 NSCLC): 9.05 µM
GI50 (HL-60(TB) leukemia): 2.07 µM
TGI (HL-60(TB) leukemia): 5.39 µM
GI50 (UACC-62 melanoma): 1.56 µM
TGI (UACC-62 melanoma): 3.1 µM
GI50 (COLO 205 colon): 1.81 µM
TGI (COLO 205 colon): 3.44 µM
GI50 (DU-145 prostate): 2.79 µM
TGI (DU-145 prostate): 8.15 µM
GI50 (SNB-75 CNS): 1.66 µM
TGI (SNB-75 CNS): 4.58 µM
GI50 (A498 renal): 2.18 µM
TGI (A498 renal): 7.22 µM
GI50 (HOP-92 NSCLC): 2.05 µM
TGI (HOP-92 NSCLC): 4.24 µM
